Experiments:
NCI-H522 = assay: NCI-60 one-dose screen; assay type: cell-based; conditions: Homo sapiens; NCI-H522, Non-small cell lung panel; single dose 10^−5 M; read-out: Growth inhibition %
Procedure: (§1) The newly synthesized compounds were screened for their in vitro anticancer activity at the Developmental Therapeutic Program (DTP) of the National Cancer Institute (NCI). The screening involved a panel of 60 human tumor cell lines consisting of 9 tissue types to screen for potential anti-cancer agents. The primary screening of submitted compounds was performed by testing a single dose (10^−5 M) in the full NCI-60 panel. The detailed % inhibition by the tested compounds against the 60 cell lines is shown in Tables S1–S3 in the Supporting Information.

HCC-2998 = assay: NCI-60 one-dose screen; assay type: cell-based; conditions: Homo sapiens; HCC-2998, Colon Cancer panel; single dose 10^−5 M; read-out: Growth inhibition %
Procedure: as §1

UACC-257 = assay: NCI-60 one-dose screen; assay type: cell-based; conditions: Homo sapiens; UACC-257, Melanoma panel; single dose 10^−5 M; read-out: Growth inhibition %
Procedure: as §1

T-47D = assay: NCI-60 one-dose screen; assay type: cell-based; conditions: Homo sapiens, T47D, Breast Cancer panel, single dose 10^−5 M, read-out: Growth inhibition %
Procedure: as §1

SF-295 = assay: NCI-60 one-dose screen; assay type: cell-based; conditions: Homo sapiens; SF-295, CNS Cancer panel; single dose 10^−5 M; read-out: Growth inhibition %
Procedure: as §1

NCI/ADR-RES = assay: NCI-60 one-dose screen; assay type: cell-based; conditions: Homo sapiens, Ovarian Cancer panel, single dose 10^−5 M, read-out: Growth inhibition %
Procedure: as §1

SR = assay: NCI-60 one-dose screen; assay type: cell-based; conditions: Homo sapiens, Leukemia panel, single dose 10^−5 M, read-out: Growth inhibition %
Procedure: as §1

M14 = assay: NCI-60 one-dose screen; assay type: cell-based; conditions: Homo sapiens; M14, Melanoma panel; single dose 10^−5 M; read-out: Growth inhibition %
Procedure: as §1

HCT-15 = assay: NCI-60 one-dose screen; assay type: cell-based; conditions: Homo sapiens; HCT-15, Colon Cancer panel; single dose 10^−5 M; read-out: Growth inhibition %
Procedure: as §1

SK-MEL-5 = assay: NCI-60 one-dose screen; assay type: cell-based; conditions: Homo sapiens; SK-MEL-5, Melanoma panel; single dose 10^−5 M; read-out: Growth inhibition %
Procedure: as §1

SK-MEL-28 = assay: NCI-60 one-dose screen; assay type: cell-based; conditions: Homo sapiens; SK-MEL-28, Melanoma panel; single dose 10^−5 M; read-out: Growth inhibition %
Procedure: as §1

SK-OV-3 = assay: NCI-60 one-dose screen; assay type: cell-based; conditions: Homo sapiens; SK-OV-3, Ovarian Cancer panel; single dose 10^−5 M; read-out: Growth inhibition %
Procedure: as §1

SNB-75 = assay: NCI-60 one-dose screen; assay type: cell-based; conditions: Homo sapiens; SNB-75, CNS Cancer panel; single dose 10^−5 M; read-out: Growth inhibition %
Procedure: as §1

K-562 = assay: NCI-60 one-dose screen; assay type: cell-based; conditions: Homo sapiens, K562; K-562, Leukemia panel; single dose 10^−5 M; read-out: Growth inhibition %
Procedure: as §1

ACHN = assay: NCI-60 one-dose screen; assay type: cell-based; conditions: Homo sapiens, Renal Cancer panel, single dose 10^−5 M, read-out: Growth inhibition %
Procedure: as §1

U251 = assay: NCI-60 one-dose screen; assay type: cell-based; conditions: Homo sapiens, U-251; U251, CNS Cancer panel; single dose 10^−5 M; read-out: Growth inhibition %
Procedure: as §1

CAKI-1 = assay: NCI-60 one-dose screen; assay type: cell-based; conditions: Homo sapiens; CAKI-1, Renal Cancer panel; single dose 10^−5 M; read-out: Growth inhibition %
Procedure: as §1

OVCAR-3 = assay: NCI-60 one-dose screen; assay type: cell-based; conditions: Homo sapiens; OVCAR-3, Ovarian Cancer panel; single dose 10^−5 M; read-out: Growth inhibition %
Procedure: as §1

SW-620 = assay: NCI-60 one-dose screen; assay type: cell-based; conditions: Homo sapiens; SW-620, Colon Cancer panel; single dose 10^−5 M; read-out: Growth inhibition %
Procedure: as §1

SK-MEL-2 = assay: NCI-60 one-dose screen; assay type: cell-based; conditions: Homo sapiens; SK-MEL-2, Melanoma panel; single dose 10^−5 M; read-out: Growth inhibition %
Procedure: as §1

MDA-MB-435 = assay: NCI-60 one-dose screen; assay type: cell-based; conditions: Homo sapiens; MDA-MB-435, Melanoma panel; single dose 10^−5 M; read-out: Growth inhibition %
Procedure: as §1

HOP-92 = assay: NCI-60 one-dose screen; assay type: cell-based; conditions: Homo sapiens; HOP-92, Non-small cell lung panel; single dose 10^−5 M; read-out: Growth inhibition %
Procedure: as §1

KM12 = assay: NCI-60 one-dose screen; assay type: cell-based; conditions: Homo sapiens; KM12, Colon Cancer panel; single dose 10^−5 M; read-out: Growth inhibition %
Procedure: as §1

SN12C = assay: NCI-60 one-dose screen; assay type: cell-based; conditions: Homo sapiens, Renal Cancer panel, single dose 10^−5 M, read-out: Growth inhibition %
Procedure: as §1

COLO 205 = assay: NCI-60 one-dose screen; assay type: cell-based; conditions: Homo sapiens; COLO 205, Colon Cancer panel; single dose 10^−5 M; read-out: Growth inhibition %
Procedure: as §1

SF-268 = assay: NCI-60 one-dose screen; assay type: cell-based; conditions: Homo sapiens; SF-268, CNS Cancer panel; single dose 10^−5 M; read-out: Growth inhibition %
IGROV1 = assay: NCI-60 one-dose screen; assay type: cell-based; conditions: Homo sapiens, IGROV-1; IGROV1, Ovarian Cancer panel; single dose 10^−5 M; read-out: Growth inhibition %
CCRF-CEM = assay: NCI-60 one-dose screen; assay type: cell-based; conditions: Homo sapiens, Leukemia panel, single dose 10^−5 M, read-out: Growth inhibition %
PDE5A = biological target: T1, PDE5A (Homo sapiens, UniProt O76074); assay: Phosphodiesterase 5 HTRF cGMP assay; assay type: biochemical; conditions: for IC50: means ± S.D. (n = 4), read-out: PDE5 IC50; for inhibition at 10 µM: read-out: PDE5 % Inhibition at 10 μM
T1 construct: purchased BPS Bioscience, San Diego, CA, USA
Procedure: All the synthesized acridine derivatives were tested for their in vitro ability to inhibit PDE5A at a screening dose of 10 µM.
The enzyme activities of phosphodiesterase 5 (PDE5) were measured using an HTRF cGMP assay kit (Cisbio, Codolet, France). […] Afterward, the HTRF reagent (cGMP-d2 and anti-cGMP-cryptate) was added for 1 h at 25 °C, and PDE activity was assayed on an HTRF reader (Tecan Infinite F200 Pro).

LOX IMVI = assay: NCI-60 one-dose screen; assay type: cell-based; conditions: Homo sapiens, Melanoma panel, single dose 10^−5 M, read-out: Growth inhibition %

| Compound | inhibition at 10 µM (NCI-H522) | inhibition at 10 µM (HCC-2998) | inhibition at 10 µM (UACC-257) | inhibition at 10 µM (T-47D) | inhibition at 10 µM (SF-295) | inhibition at 10 µM (NCI/ADR-RES) | inhibition at 10 µM (SR) | inhibition at 10 µM (M14) | inhibition at 10 µM (HCT-15) | inhibition at 10 µM (SK-MEL-5) | inhibition at 10 µM (SK-MEL-28) | inhibition at 10 µM (SK-OV-3) | inhibition at 10 µM (SNB-75) | inhibition at 10 µM (K-562) | inhibition at 10 µM (ACHN) | inhibition at 10 µM (U251) | inhibition at 10 µM (CAKI-1) | inhibition at 10 µM (OVCAR-3) | inhibition at 10 µM (SW-620) | inhibition at 10 µM (SK-MEL-2) | also measured |
| --- | --- | --- | --- | --- | --- | --- | --- | --- | --- | --- | --- | --- | --- | --- | --- | --- | --- | --- | --- | --- | --- |
| Cc1cccc(CNc2c3ccccc3nc3ccccc23)c1 [Compound 3, Acridin-9-yl-(3-methylbenzyl)-amine] | 47.9% | 96.4% | 63.8% | 74.7% | 74.7% | 74.3% | 103% | 77.2% | 84.1% | 80.2% | 41.2% | 54.7% | 63% | 98.1% | 84.2% | 76.3% | 82.3% | 69.2% | 82.8% | 62% | inhibition at 10 µM (MDA-MB-435): 70.9%; inhibition at 10 µM (HOP-92): 93%; inhibition at 10 µM (KM12): 74.4%; inhibition at 10 µM (SN12C): 73.9%; inhibition at 10 µM (COLO 205): 116%; inhibition at 10 µM (SF-268): 48%; inhibition at 10 µM (IGROV1): 80.5%; inhibition at 10 µM (CCRF-CEM): 85.2%; IC50 (PDE5A): 6.4 ± 1.89 µM; inhibition at 10 µM (PDE5A): 59.3 ± 6.18%; inhibition at 10 µM (LOX IMVI): 93.8% |
| COc1ccc(CNc2c3ccccc3nc3ccc(OC)cc23)cc1 [Compound 27, (2-Methoxyacridin-9-yl)-(4-methoxybenzyl)-amine] | 73.8% | 158% | 93.4% | 65.8% | 80.6% | 83.8% | 116% | 80.5% | 94.7% | 88.9% | 58.7% | 52.9% | 72.6% | 99.7% | 89.8% | 83.9% | 80.1% | 59.6% | 84.2% | 59.1% | inhibition at 10 µM (MDA-MB-435): 81%; inhibition at 10 µM (KM12): 72.4%; inhibition at 10 µM (SN12C): 79.2%; inhibition at 10 µM (COLO 205): 151%; inhibition at 10 µM (SF-268): 59.8%; inhibition at 10 µM (IGROV1): 88.8%; inhibition at 10 µM (CCRF-CEM): 80.6%; IC50 (PDE5A): 1.87 ± 1.03 µM; inhibition at 10 µM (PDE5A): 88.8 ± 4.84%; inhibition at 10 µM (LOX IMVI): 175% |
| COc1ccc2nc3ccccc3c(NCc3ccc(Cl)cc3)c2c1 [Compound 29, (4-Chlorobenzyl)-(2-methoxyacridin-9-yl)-amine] | 65.3% | 188% | 152% | 50.7% | 74.2% | 77.1% | 130% | 186% | 95% | 88.3% | 92.9% | 36% | 42.4% | 130% | 82.9% | 97.5% | 78.6% | 49% | 87.2% | 28.7% | inhibition at 10 µM (MDA-MB-435): 75.9%; inhibition at 10 µM (KM12): 59.9%; inhibition at 10 µM (SN12C): 77.9%; inhibition at 10 µM (COLO 205): 162%; inhibition at 10 µM (SF-268): 46.5%; inhibition at 10 µM (IGROV1): 83.7%; inhibition at 10 µM (CCRF-CEM): 91.6%; IC50 (PDE5A): 5.35 ± 1.01 µM; inhibition at 10 µM (PDE5A): 66.1 ± 3.27%; inhibition at 10 µM (LOX IMVI): 186% |
